In patent US10183936B2, “Hepatitis B core protein allosteric modulators” (priority 2014, dated 2019):

Columns and labels:
[1] = test system: HBV viral production in AD38 cells; assay: Viral load production in AD38 cells by quantitative PCR of the HBV core sequence in supernatant; assay type: cell-based; settings: Hepatitis B virus, 144 h; 10 μM compound, 6 days at 37° C., viral load in supernatant compared against DMSO control wells; read-out: AD38 Viral Load (CpAM/DMSO %) at 10 μM
Outline: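 AD38 cells seeded at 50,000/well, treated 6 days at 37° C with compound added as 10× solution in 10% DMSO. HBV core sequence in clarified supernatant quantified by TaqMan qPCR against known standards; viral load compared with DMSO control wells.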

AD38 cells = assay: Viability of AD38 cells (Promega CellTiter-Glo) at the end of compound treatment; assay type: cell-based; settings: 10 μM compound, 6 days, luminescence normalized against DMSO control wells (controls being 100%)
Outline: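 AD38 cells seeded at 50,000/well received compound from a 10× solution in 10% DMSO and were incubated 6 days at 37° C. Viability was then read by CellTiter-Glo luminescence in tetracycline-free medium with 2% FBS and 1% DMSO, normalized to DMSO control wells (100%) and reported as percent viability.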

SMILES	activity at 10 µM [1] [%]	AD38 Viability Normalized Result (CPAM/DMSO %) at 10 μM (AD38 cells) [%]
CCOc1cccc(CCNC(=O)c2ccc3c(c2)NC(=O)c2ccccc2S3)c1 [Compound 1157]	1	48
O=C(NCc1cncnc1)c1ccc2c(c1)NC(=O)c1ccccc1S2 [Compound 1233]	1	93
O=C(NCCc1ccc(-n2cnnc2)cc1)c1ccc2c(c1)NC(=O)c1ccccc1S2 [Compound 1267]	77	93
O=C(NCc1cccnc1)c1cc2c(cc1F)Sc1ccccc1C(=O)N2 [Compound 1396]	63	95
CNc1ccccc1CNC(=O)c1ccc2c(c1)NC(=O)c1ccccc1S2 [Compound 1239, N-(2-(methylamino)benzyl)-11-oxo-10, 11-dihydrodibenzo [b,f] [1,4] thiazepine-8-carboxamide]	33	106
O=C(Nc1ncc(-c2ccccc2)s1)c1ccc2c(c1)NC(=O)c1cc(F)ccc1S2 [Compound 1481]	46	100
O=C(NCCc1ccccc1)c1ccc2c(c1)Sc1ccccc1C(=O)N2 [Compound 1200]	18	125
O=C(Nc1ccncc1)c1cc2c(cc1F)Sc1ccccc1C(=O)N2 [Compound 1508]	31	81
O=C(NCc1cnco1)c1ccc2c(c1)NC(=O)c1ccccc1S2(=O)=O [Compound 1456]	15	101
CCC(CNC(=O)c1ccc2c(c1)NC(=O)c1ccccc1S2)c1ccccc1 (stereo not shown) [Compound 1176]	2	104
O=C(Nc1cccc(-c2cnco2)c1)c1ccc2c(c1)NC(=O)c1cc(F)ccc1S2 [Compound 1386]	61	95
O=C(NCCc1cncnc1)c1ccc2c(c1)NC(=O)c1ccccc1S2(=O)=O [Compound 1457]	28	92
O=C(NCc1cccnc1)c1ccc2c(c1)NC(=O)c1cc(F)ccc1S2 [Compound 1364]	1	102
O=C1Nc2cc(S(=O)(=O)NCc3cncnc3)ccc2Sc2ccccc21 [Compound 1473]	81	97
Cc1ccc2c(c1)C(=O)Nc1cc(C(=O)NCCC3CCCCC3)ccc1S2 [Compound 1274]	11	88
O=C(NCc1cncnc1)c1cc2c(cc1F)Sc1ccccc1C(=O)N2 [Compound 1428]	28	93
COc1cc2c(cc1C(=O)NCCC1CCCCC1)NC(=O)c1ccccc1S2 [Compound 1287]	11	96
O=C(Nc1nc2ccc(Cl)cc2s1)c1ccc2c(c1)NC(=O)c1cc(F)ccc1S2 [Compound 1340]	64	116
O=C(NCCC1CCC(O)CC1)c1ccc2c(c1)NC(=O)c1ccccc1S2 (stereo not shown) [Compound 1204]	2	97
O=C(NCc1cnc(-c2ccccc2)s1)c1ccc2c(c1)NC(=O)c1ccccc1S2 [Compound 1590]	1	96
O=C(NCCC1CCNCC1)c1ccc2c(c1)NC(=O)c1ccccc1S2 [Compound 1244, 11-oxo-N-(2-(piperidin-4-yl)ethyl)-10, 11-dihydrodibenzo [b,f] [1,4] thiazepine-8-carboxamide]	14	103
O=C(Nc1cccc(-c2ccccc2)c1)c1ccc2c(c1)NC(=O)c1ccccc1N2Cc1ccccc1 [Compound 1484]	26	100
O=C(NCc1cccc(O)c1)c1ccc2c(c1)NC(=O)c1ccccc1S2 [Compound 1202]	7	107
O=C(NCCc1cncs1)c1ccc2c(c1)NC(=O)c1c(F)cccc1S2 [Compound 1598]	61	93
O=C(NCc1cnco1)c1ccc2c(c1)NC(=O)c1ccccc1[S+]2[O-] (stereo not shown) [Compound 1381]	40	93

SMILES	activity at 10 µM [1] [%]	AD38 Viability Normalized Result (CPAM/DMSO %) at 10 μM (AD38 cells) [%]
O=C(O)c1cccc(-c2cccc(NC(=O)c3ccc4c(c3)NC(=O)c3cc(F)ccc3S4)c2)c1 [Compound 1421, 3′-(2-fluoro-11-oxo-10, 11-dihydrodibenzo [b,f] [1,4]thiazepine-8-carboxamido)-[1, 1′-biphenyl]-3-carboxylic acid]	78	95
CN(C)CCOc1ccc(CCNC(=O)c2ccc3c(c2)NC(=O)c2ccccc2S3)cc1 [Compound 1154]	90	50
CCCCNC(=O)c1ccc2c(c1)NC(=O)c1ccccc1S2 [Compound 1123]	62	95
O=C(O)c1ccc(-c2cccc(NC(=O)c3ccc4c(c3)NC(=O)c3cc(F)ccc3S4)c2)cc1 [Compound 1419, 3′-(2-fluoro-11-oxo-10, 11-dihydrodibenzo [b,f] [1,4]thiazepine-8-carboxamido)-[1, 1′-biphenyl]-4-carboxylic acid]	113	89
O=C(NCCc1cncnc1)c1ccc2c(c1)NC(=O)c1ccccc1N2Cc1ccccc1 [Compound 1464]	49	98
O=C(NCCc1cccs1)c1ccc2c(c1)NC(=O)c1ccccc1S2 [Compound 1190]	1	70
COc1ccccc1CCNC(=O)c1ccc2c(c1)NC(=O)c1ccccc1S2 [Compound 1127]	22	94
CC(=O)N1CCC(CNC(=O)c2ccc3c(c2)NC(=O)c2ccccc2S3)C1 (stereo not shown) [Compound 1615, N-((1-acetylpyrrolidin-3-yl)methyl)-11-oxo-10, 11-dihydrodibenzo [b,f] [1,4] thiazepine-8-carboxamide]	32	123
Cc1c(C(=O)NCCc2ccc(-c3ccccc3)cc2)ccc2c1NC(=O)c1ccccc1S2 [Compound 1495]	9	77
O=C(NCCc1cccnc1)c1ccc2c(c1)NC(=O)c1ccccc1[S+]2[O-] (stereo not shown) [Compound 1389]	15	89
O=C(NCCc1cccc(OC(F)(F)F)c1)c1ccc2c(c1)NC(=O)c1ccccc1S2 [Compound 1201]	1	50
O=C(NCc1ccncn1)c1ccc2c(c1)NC(=O)c1ccccc1S2 [Compound 1585]	66	87
COCC(Cc1cncnc1)NC(=O)c1ccc2c(c1)NC(=O)c1cc(F)ccc1S2 (stereo not shown) [Compound 1397]	73	95
CCN1c2ccc(C(=O)NCCc3cncs3)cc2NC(=O)c2ccccc21 [Compound 1566]	31	91
O=C(Nc1nccs1)c1ccc2c(c1)NC(=O)c1cc(F)ccc1S2 [Compound 1329]	62	109
O=C(NCc1ccc(-c2cncnc2)cc1)c1ccc2c(c1)NC(=O)c1ccccc1S2(=O)=O [Compound 1627]	5	115
CN1c2ccc(C(=O)NCCc3ccccn3)cc2NC(=O)c2ccccc21 [Compound 1498]	1	82
O=C(NCCc1cnco1)c1ccc2c(c1)NC(=O)c1c(F)cccc1S2 [Compound 1580]	59	89
O=C(NCCc1ccccn1)c1ccc2c(c1)NC(=O)c1c(F)cccc1S2 [Compound 1471]	16	97
Cc1c(C(=O)NCCc2cnco2)ccc2c1NC(=O)c1ccccc1S2 [Compound 1560]	13	92
O=C(NCc1ccc(OC(F)(F)F)cc1)c1ccc2c(c1)NC(=O)c1ccccc1S2 [Compound 1162]	61	99
O=C(NCc1cnccn1)c1ccc2c(c1)NC(=O)c1ccccc1S2 [Compound 1586]	23	112
O=C(NCCc1ccc(-c2ccccc2)cc1)c1ccc2c(c1)NC(=O)c1c(F)cccc1S2 [Compound 1465]	39	106
CN(C)S(=O)(=O)c1ccc(CCNC(=O)c2ccc3c(c2)NC(=O)c2cc(F)ccc2S3)cc1 [Compound 1384]	4	79
Nc1ncc(CNC(=O)c2ccc3c(c2)NC(=O)c2ccccc2S3)s1 [Compound 1613]	0	122
